In patent publication US10065972B2, “Bicyclic or tricyclic heterocyclic compound” (MITSUBISHI TANABE PHARMA CORPORATION, priority 2014, dated 2018):
pIC50: −log10 of the molar value.

Molecular target: human recombinant KAT-II (Homo sapiens (Human), UniProt Q8N5Z0)
Test: KAT-II inhibitory test
Format: biochemical
Details: 3.0 μmol/L kynurenine, 37° C., 1 hr, pH 8.0; kynurenic acid quantified by HPLC
Experimental: The compounds described in the above-mentioned Examples were used for the KAT-II inhibitory test.
Preparation of Human Recombinant KAT-II
Human recombinant KAT-II was prepared as follows.
His tag and maltose binding protein tag were added to the N-terminal of a gene encoding human KAT-II (Genbank accession number: AF481738.1), and the obtained gene was incorporated into pET32 (Merck Nihon Millipore), which is an Escherichia coli expression vector. Human recombinant KAT-II produced by BL21(DE3) Escherichia coli (Merck Nihon Millipore, 69450) transformed using the plasmid was purified using an amylose resin column (New England Biolabs, #800-21 L).
The inhibitory action of the test compound on human recombinant KAT-II was determined by the following method.
To a reaction mixture (45 μL) containing 3.0 μmol/L kynurenine, 10 μmol/L pyridoxal phosphate, 2.0 ng/μL human recombinant KAT-II, and 150 mmol/L tris(hydroxymethyl)aminomethane-acetate buffer (pH 8.0) was added a 10% dimethyl sulfoxide solution (5 μL) of each test compound prepared, and the mixture was reacted at 37° C. for 1 hr. After the reaction, 50% trichloroacetic acid (5 μL) was added to terminate the reaction.
The resultant kynurenic acid was quantified as follows by high performance liquid chromatography. An enzyme reaction mixture was separated by an octadecylsilane reversed-phase column (SC-50DS, Eicom Corporation; mobile phase: 250 mmol/L zinc acetate, 50 mmol/L sodium acetate, and 5.0% acetonitrile (pH 6.2)) incubated at 30° C., and kynurenic acid was quantified using a fluorescence detector (RF-20Axs, Shimadzu Corporation) at excitation wavelength 354 nm, detection wavelength 460 nm. The analytical curve was drawn every time by an external standard method. Each test compound was tested by dual measurement at each concentration.

Chain of human recombinant KAT-II (Q8N5Z0 30-425): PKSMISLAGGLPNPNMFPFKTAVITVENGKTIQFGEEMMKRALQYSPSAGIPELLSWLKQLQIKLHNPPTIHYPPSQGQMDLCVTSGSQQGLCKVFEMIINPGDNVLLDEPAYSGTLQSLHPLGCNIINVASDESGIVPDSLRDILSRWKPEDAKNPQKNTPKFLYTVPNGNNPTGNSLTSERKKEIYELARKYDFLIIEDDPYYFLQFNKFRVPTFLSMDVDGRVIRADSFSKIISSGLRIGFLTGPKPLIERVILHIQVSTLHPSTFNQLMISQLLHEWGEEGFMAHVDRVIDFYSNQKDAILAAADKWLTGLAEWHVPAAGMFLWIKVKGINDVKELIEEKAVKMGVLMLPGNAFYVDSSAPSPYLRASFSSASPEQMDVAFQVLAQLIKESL

**Q.** How did the pIC50 turn out when `Cc1nc2sc([C@H]3CCCN3C(=O)Nc3csc4ncccc34)nn2c(=O)c1C` [Example 175, (R)-2-(6,7-dimethyl-5-oxo-5H-[1,3,4]thiadiazolo[3,2-a]pyrimidin-2-yl)-N-(thieno[2,3-b]pyridin-3-yl)-pyrrolidine-1-carboxamide] was run?
**A.** Its pIC50 is 5.43.

**Q.** `CCCc1cc(=O)n2nc(N3CCCN3C(=O)Oc3ccccc3)sc2n1` [Example 176, 2-(5-oxo-7-propyl-5H-[1,3,4]thiadiazolo[3,2-a]pyrimidin-2-yl)pyrazolidine-1-carboxylic acid phenyl ester] was tested. Which pIC50 did it give?
**A.** The pIC50 was 6.28.

**Q.** How did the pIC50 turn out when `CCc1nc2sc(N3CCC[C@@H]3C(=O)NCc3cccc(F)c3)nc2c(=O)n1C` [Example 183, (R)-1-(5-ethyl-6-methyl-7-oxo-6,7-dihydro-[1,3]thiazolo[5,4-d]pyrimidin-2-yl)-N-(3-fluorobenzyl)pyrrolidine-2-carboxamide] was run?
**A.** Its pIC50 is 7.49.

**Q.** With `Cn1c(C(F)(F)F)nc2sc(N3CCC[C@@H]3C(=O)NCc3ccccc3)nc2c1=O` [Example 190, (R)-N-benzyl-1-(6-methyl-7-oxo-5-trifluoromethyl-6,7-dihydro-[1,3]thiazolo[5,4-d]pyrimidin-2-yl)pyrrolidine-2-carboxamide] as the compound, how does the pIC50 read?
**A.** Its pIC50 is 7.59.

**Q.** How did the pIC50 turn out when `COCCn1c(C(F)F)nc2sc(N3CCC[C@@H]3C(=O)NCc3ccccc3)nc2c1=O` [Example 191, (R)-N-benzyl-1-[5-difluoromethyl-6-(2-methoxy-ethyl)-7-oxo-6,7-dihydro-[1,3]thiazolo[5,4-d]pyrimidin-2-yl]pyrrolidine-2-carboxamide] was run?
**A.** The pIC50 was 7.51.

**Q.** With `Cn1c(-c2ccccn2)nc2sc(N3CCC[C@@H]3C(=O)NCc3ccccc3)nc2c1=O` [Example 194, (R)-N-benzyl-1-[6-methyl-7-oxo-5-(pyridin-2-yl)-6,7-dihydro-[1,3]thiazolo[5,4-d]pyrimidin-2-yl]pyrrolidine-2-carboxamide] as the compound, how does the pIC50 read?
**A.** Its pIC50 is 7.12.

**Q.** How did the pIC50 turn out when `Cn1c(-c2c(F)cc(F)cc2F)nc2sc(N3CCC[C@@H]3C(=O)NCc3ccccc3)nc2c1=O` [Example 203, (R)-N-benzyl-1-[6-methyl-7-oxo-5-(2,4,6-trifluorophenyl)-6,7-dihydro[1,3]thiazolo[5,4-d]pyrimidin-2-yl]pyrrolidine-2-carboxamide] was run?
**A.** The pIC50 was 7.85.

**Q.** How did the pIC50 turn out when `Cn1c(-c2c(F)cccc2F)nc2sc(N3CCC[C@@H]3C(=O)NCc3ccccc3)nc2c1=O` [Example 204, (R)-N-benzyl-1-[5-(2,6-difluorophenyl)-6-methyl-7-oxo-6,7-dihydro[1,3]thiazolo[5,4-d]pyrimidin-2-yl]pyrrolidine-2-carboxamide] was run?
**A.** Its pIC50 is 8.15.

**Q.** `Cc1noc(-c2nc3sc(N4CCC[C@@H]4C(=O)NCc4ccccc4)nc3c(=O)n2C)n1` [Example 211, (R)-N-benzyl-1-[6-methyl-5-(3-methyl-1,2,4-oxadiazol-5-yl)-7-oxo-6,7-dihydro[1,3]thiazolo[5,4-d]pyrimidin-2-yl]pyrrolidine-2-carboxamide] was tested. Which pIC50 did it give?
**A.** Its pIC50 is 8.14.

**Q.** How did the pIC50 turn out when `Cc1noc(-c2nc3sc(N4CCC[C@@H]4C(=O)NCc4ccc(F)cc4)nc3c(=O)n2C)n1` [Example 213, (R)-N-(4-fluorobenzyl)-1-[6-methyl-5-(3-methyl-[1,2,4]oxadiazol-5-yl)-7-oxo-6,7-dihydro[1,3]thiazolo[5,4-d]pyrimidin-2-yl]pyrrolidine-2-carboxamide] was run?
**A.** The pIC50 was 7.80.

**Q.** With `Cc1noc(-c2nc3sc(N4CCC[C@@H]4C(=O)NCc4ccccc4)nc3c(=O)n2CC(F)F)n1` [Example 221, (R)-N-benzyl-1-[6-(2,2-difluoroethyl)-5-(3-methyl-1,2,4-oxadiazol-5-yl)-7-oxo-6,7-dihydro[1,3]thiazolo[5,4-d]pyrimidin-2-yl]pyrrolidine-2-carboxamide] as the compound, how does the pIC50 read?
**A.** The pIC50 was 8.32.

**Q.** With `CC1(Cn2c(C(F)(F)F)nc3sc(N4CCC[C@@H]4C(=O)NCc4ccccc4)nc3c2=O)COC1` [Example 227, (R)-N-benzyl-1-{6-[(3-methyloxetan-3-yl)methyl]-7-oxo-5-trifluoromethyl-6,7-dihydro[1,3]thiazolo[5,4-d]pyrimidin-2-yl}pyrrolidine-2-carboxamide] as the compound, how does the pIC50 read?
**A.** Its pIC50 is 7.14.

**Q.** How did the pIC50 turn out when `Cc1ccccc1CNC(=O)[C@H]1CCCN1c1nc2c(=O)n(C)c(C)nc2s1` [Example 229, (R)-1-(5,6-dimethyl-7-oxo-6,7-dihydro-[1,3]thiazolo[5,4-d]pyrimidin-2-yl)-N-(2-methylbenzyl)pyrrolidine-2-carboxamide] was run?
**A.** The pIC50 was 7.68.

**Q.** `CCc1nc2sc(N3CC[C@@H]3C(=O)NCc3ccccc3)nc2c(=O)n1C` [Example 233, (R)-N-benzyl-1-(5-ethyl-6-methyl-7-oxo-6,7-dihydro-[1,3]thiazolo[5,4-d]pyrimidin-2-yl)azetidine-2-carboxamide] was tested. Which pIC50 did it give?
**A.** The pIC50 was 6.92.

**Q.** With `CCc1nc2sc(N3CCCC[C@@H]3C(=O)NCc3ccccc3)nc2c(=O)n1CC` [Example 236, (R)-N-benzyl-1-(5,6-diethyl-7-oxo-6,7-dihydro-[1,3]thiazolo[5,4-d]pyrimidin-2-yl)piperidine-2-carboxamide] as the compound, how does the pIC50 read?
**A.** Its pIC50 is 6.62.

**Q.** `O=C(NCc1ccccc1)[C@H]1CCCN1c1nc2c(=O)n(C3CCCC3)cnc2s1` [Example 238, (R)-N-benzyl-1-(6-cyclopentyl-7-oxo-6,7-dihydro-[1,3]thiazolo[5,4-d]pyrimidin-2-yl)pyrrolidine-2-carboxamide] was tested. Which pIC50 did it give?
**A.** The pIC50 was 7.80.

**Q.** How did the pIC50 turn out when `O=C(NCc1ccccc1)[C@H]1CCCN1c1nc2c(=O)n(C3CCOCC3)c(C(F)(F)F)nc2s1` [Example 244, (R)-N-benzyl-1-[7-oxo-6-(tetrahydro-2H-pyran-4-yl)-5-trifluoromethyl-6,7-dihydro-[1,3]thiazolo[5,4-d]pyrimidin-2-yl]pyrrolidine-2-carboxamide] was run?
**A.** Its pIC50 is 7.96.

**Q.** With `O=C(NCc1ccccc1)[C@H]1CCCN1c1nc2c(=O)n(C3COC3)c(C(F)(F)F)nc2s1` [Example 251, (R)-N-benzyl-1-[6-(oxetan-3-yl)-7-oxo-5-trifluoromethyl-6,7-dihydro-[1,3]thiazolo[5,4-d]pyrimidin-2-yl]pyrrolidine-2-carboxamide] as the compound, how does the pIC50 read?
**A.** The pIC50 was 7.40.

**Q.** With `O=C(NCc1ccccc1)[C@H]1CCCN1c1nc2c(=O)n(N3CCCC3)c(C(F)(F)F)nc2s1` [Example 252, (R)-N-benzyl-1-[7-oxo-6-(pyrrolidin-1-yl)-5-trifluoromethyl-6,7-dihydro-[1,3]thiazolo[5,4-d]pyrimidin-2-yl]pyrrolidine-2-carboxamide] as the compound, how does the pIC50 read?
**A.** Its pIC50 is 7.72.

**Q.** `O=C(NCc1ccccc1)[C@H]1CCCN1c1nc2c(=O)n(N3CCOCC3)c(C(F)(F)F)nc2s1` [Example 253, (R)-N-benzyl-1-[6-(morpholin-4-yl)-7-oxo-5-trifluoromethyl-6,7-dihydro-[1,3]thiazolo[5,4-d]pyrimidin-2-yl]pyrrolidine-2-carboxamide] was tested. Which pIC50 did it give?
**A.** The pIC50 was 7.05.

**Q.** With `O=C(NCc1ccccc1)[C@H]1CCCN1c1nc2c(=O)n(CC3CCOCC3)c(C(F)F)nc2s1` [Example 254, (R)-N-benzyl-1-{5-difluoromethyl-7-oxo-6-[(tetrahydro-2H-pyran-4-yl)methyl]-6,7-dihydro-[1,3]thiazolo[5,4-d]pyrimidin-2-yl}pyrrolidine-2-carboxamide] as the compound, how does the pIC50 read?
**A.** The pIC50 was 7.96.

**Q.** With `COCc1nc2sc(N3CCC[C@@H]3C(=O)NCc3ccccc3)nc2c(=O)n1C1CC1` [Example 258, (R)-N-benzyl-1-[6-cyclopropyl-5-methoxymethyl-7-oxo-6,7-dihydro[1,3]thiazolo[5,4-d]pyrimidin-2-yl]pyrrolidine-2-carboxamide] as the compound, how does the pIC50 read?
**A.** The pIC50 was 6.74.

**Q.** How did the pIC50 turn out when `Cn1c(C2CCOCC2)nc2sc(N3CCC[C@@H]3C(=O)NCc3ccccc3)nc2c1=O` [Example 259, (R)-N-benzyl-1-[6-methyl-7-oxo-5-(tetrahydro-2H-pyran-4-yl)-6,7-dihydro[1,3]thiazolo[5,4-d]pyrimidin-2-yl]pyrrolidine-2-carboxamide] was run?
**A.** Its pIC50 is 8.37.

**Q.** With `CN1CCC(n2c(C(F)(F)F)nc3sc(N4CCC[C@@H]4C(=O)NCc4ccccc4)nc3c2=O)CC1` [Example 264, (R)-N-benzyl-1-[6-(1-methylpiperidin-4-yl)-7-oxo-5-trifluoromethyl-6,7-dihydro-[1,3]thiazolo[5,4-d]pyrimidin-2-yl]pyrrolidine-2-carboxamide] as the compound, how does the pIC50 read?
**A.** The pIC50 was 6.80.

**Q.** `C[C@@H](NC(=O)[C@H]1CCCN1c1nc2c(=O)n(C)c(C(C)(F)F)nc2s1)c1ccccc1` [Example 267, (R)-1-[5-(1,1-difluoroethyl)-6-methyl-7-oxo-6,7-dihydro[1,3]thiazolo[5,4-d]pyrimidin-2-yl]-N-((R)-1-phenylethyl)pyrrolidine-2-carboxamide] was tested. Which pIC50 did it give?
**A.** Its pIC50 is 7.66.

**Q.** With `Cn1c(C2(F)CC2)nc2sc(N3CCC[C@@H]3C(=O)NCc3ccccc3)nc2c1=O` [Example 268, (R)-N-benzyl-1-[5-(1-fluorocyclopropyl)-6-methyl-7-oxo-6,7-dihydro[1,3]thiazolo[5,4-d]pyrimidin-2-yl]pyrrolidine-2-carboxamide] as the compound, how does the pIC50 read?
**A.** The pIC50 was 8.06.

**Q.** With `Cn1c(C(F)(F)c2ccccn2)nc2sc(N3CCC[C@@H]3C(=O)NCc3ccccc3)nc2c1=O` [Example 273, (R)-N-benzyl-1-{5-[difluoro(pyridin-2-yl)methyl]-6-methyl-7-oxo-6,7-dihydro[1,3]thiazolo[5,4-d]pyrimidin-2-yl}pyrrolidine-2-carboxamide] as the compound, how does the pIC50 read?
**A.** Its pIC50 is 8.25.
